Tested on: 5XFAD primary cortical neurons
Assay: Mitochondrial morphology (TOM20 staining) in 5XFAD primary cortical neurons
Format: cell-based, mouse
Settings: 10 and 50 μM, 48 hours; compared with no treatment control 5XFAD neurons
Protocol: Immunofluorescent Microscopy and Image Analysis. Isolated primary mouse cortical neurons from the 5XFAD Alzheimer's Disease mouse model were cultured for 10 days and then treated with 14b at 10 or 50 μM for 48 hours. Primary neurons growing on the coverslips were washed three times with PBS and fixed with 4% PFA. After permeabilization with 0.5% Triton™ X-100 for 15 minutes, coverslips were blocked with 10% NGS for 30 min. Coverslips were rinsed with 1% NGS in PBS and incubated with anti-TOM20 antibody at 4° C. overnight. Coverslips were then rinsed with 1% NGS, blocked in 10% NGS for 10 min, and rinsed with 1% NGS. Coverslips were incubated with species-specific AlexaFluor® 488-conjugated Abs diluted in 1% NGS for 2 h at room temperature in the dark. Coverslips were rinsed 3× with PBS. Excess liquid was removed, and slides were coverslipped using Fluoromount-G™ mounting medium. Slides were imaged using a confocal microscope with 63x/1.4NA Oil objective. The acquired images were processed for background subtraction in Zen software. Mitochondrial length was calculated from single plane images. Mitochondrial length was defined as the Feret maximum.
To obtain proof-of-concept protective effect of 14b in an ex vivo mouse model of AD we isolated primary mouse cortical neurons from the 5XFAD Alzheimer's model mouse (FIGS. 6A-6C). […]

`O=C(C(c1ccccc1)n1cnc2[nH]ncc2c1=S)N1CCC(O)CC1` (centres unmarked) [Compound 14b, 1-(4-hydroxypiperidin-1-yl)-2-phenyl-2-(4-thioxo-1,4-dihydro-5H-pyrazolo[3,4-d]pyrimidin-5-yl)ethan-1-one] was tested, and the mitochondrial aspect ratio was “significantly rescued” and the mitochondrial length was “significantly rescued”.
